Reference: PubChem BioAssay (NCI)
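Results reflect a 48-hour exposure of cells in 96-well plates to compound at five concentrations. GI50 = concentration required for 50% inhibition of growth. TGI: total growth inhibition.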

Experiments:
Assay in all cases: NCI-60 cell line screen, 48 h
[1] = tested on: RPMI-8226 leukemia
[2] = tested on: UACC-257 melanoma
[3] = tested on: HOP-62 NSCLC
[4] = tested on: SW-620 colon
[5] = tested on: SF-268 CNS
[6] = tested on: A498 renal
[7] = tested on: MDA-MB-231 breast
[8] = tested on: ACHN renal
[9] = tested on: NCI-H460 lung
[10] = tested on: HL-60(TB) leukemia
[11] = tested on: OVCAR-8 ovarian
[12] = tested on: EKVX NSCLC
[13] = tested on: CAKI-1 renal
[14] = tested on: SF-539 CNS
[15] = tested on: HS 578T breast
[16] = tested on: NCI-H23 lung
[17] = tested on: RXF 393 renal
[18] = tested on: U251 CNS
[19] = tested on: BT-549 breast
[20] = tested on: OVCAR-4 ovarian
[21] = tested on: A549 NSCLC
[22] = tested on: SK-OV-3 ovarian
[23] = tested on: DU-145 prostate
[24] = tested on: UACC-62 melanoma
[25] = tested on: SK-MEL-5 melanoma
[26] = tested on: MALME-3M melanoma
[27] = tested on: HCC-2998 colon
[28] = tested on: HCT-116 colon
[29] = tested on: HT29 colon
[30] = tested on: MDA-MB-435
[31] = tested on: MOLT-4 leukemia
[32] = tested on: T-47D breast
[33] = tested on: SN12C renal
[34] = tested on: SNB-19 CNS
[35] = tested on: LOX IMVI melanoma
[36] = tested on: SK-MEL-28 melanoma
[37] = tested on: TK-10 renal
[38] = tested on: SNB-75 CNS
[39] = tested on: SF-295 CNS
[40] = tested on: UO-31 renal
[41] = tested on: SK-MEL-2 melanoma
[42] = tested on: NCI/ADR-RES ovarian
[43] = tested on: HCT-15 colon
[44] = tested on: NCI-H522 lung
[45] = tested on: COLO 205 colon
[46] = tested on: CCRF-CEM leukemia
[47] = tested on: M14 melanoma
[48] = tested on: MCF7 breast
[49] = tested on: KM12 colon
[50] = tested on: OVCAR-5 ovarian
[51] = tested on: HOP-92 NSCLC
[52] = tested on: PC-3 prostate
[53] = tested on: NCI-H226 lung
[54] = tested on: IGROV1 ovarian
[55] = tested on: OVCAR-3 ovarian

**Q.** With `COc1ccc(-n2nc(C)c3c(Nc4ccc(NC(=O)Nc5ccc(Cl)c(C(F)(F)F)c5)cc4)ncnc32)cc1` as the molecule, how does the GI50 [1] read?
**A.** The GI50 was 1.34 µM.

**Q.** What about the TGI [1] of the same molecule?
**A.** The TGI was 4.21 µM.

**Q.** What about the GI50 [2] of the same molecule?
**A.** The GI50 was 1.88 µM.

**Q.** And the TGI [2]?
**A.** Its TGI is 4.66 µM.

**Q.** And the GI50 [3]?
**A.** Its GI50 is 1.83 µM.

**Q.** And the TGI [3]?
**A.** Its TGI is 3.66 µM.

**Q.** And the GI50 [4]?
**A.** The GI50 was 1.9 µM.

**Q.** What about the TGI [4] of the same molecule?
**A.** The TGI was 4.35 µM.

**Q.** And the GI50 [5]?
**A.** Its GI50 is 2.61 µM.

**Q.** And the TGI [5]?
**A.** Its TGI is 7.99 µM.

**Q.** And the GI50 [6]?
**A.** The GI50 was 2.09 µM.

**Q.** What about the TGI [6] of the same molecule?
**A.** The TGI was 5.67 µM.

**Q.** And the GI50 [7]?
**A.** Its GI50 is 1.47 µM.

**Q.** And the TGI [7]?
**A.** Its TGI is 3.32 µM.

**Q.** What about the GI50 [8] of the same molecule?
**A.** Its GI50 is 1.64 µM.

**Q.** What about the TGI [8] of the same molecule?
**A.** Its TGI is 6.86 µM.

**Q.** And the GI50 [9]?
**A.** Its GI50 is 2.17 µM.

**Q.** And the TGI [9]?
**A.** Its TGI is 5.07 µM.

**Q.** What about the GI50 [10] of the same molecule?
**A.** The GI50 was 2.1 µM.

**Q.** And the TGI [10]?
**A.** The TGI was 4.95 µM.

**Q.** What about the GI50 [11] of the same molecule?
**A.** Its GI50 is 2.84 µM.

**Q.** What about the TGI [11] of the same molecule?
**A.** The TGI was 11.7 µM.

**Q.** What about the GI50 [12] of the same molecule?
**A.** Its GI50 is 2.19 µM.

**Q.** What about the TGI [12] of the same molecule?
**A.** Its TGI is 5.55 µM.

**Q.** And the GI50 [13]?
**A.** Its GI50 is 1.51 µM.

**Q.** And the TGI [13]?
**A.** Its TGI is 3.51 µM.

**Q.** And the GI50 [14]?
**A.** Its GI50 is 1.24 µM.

**Q.** What about the TGI [14] of the same molecule?
**A.** The TGI was 3.2 µM.

**Q.** And the GI50 [15]?
**A.** Its GI50 is 1.58 µM.

**Q.** What about the TGI [15] of the same molecule?
**A.** Its TGI is 4.2 µM.

**Q.** And the GI50 [16]?
**A.** Its GI50 is 1.69 µM.

**Q.** What about the TGI [16] of the same molecule?
**A.** Its TGI is 3.95 µM.

**Q.** What about the GI50 [17] of the same molecule?
**A.** Its GI50 is 0.617 µM.

**Q.** What about the TGI [17] of the same molecule?
**A.** The TGI was 2.17 µM.

**Q.** And the GI50 [18]?
**A.** The GI50 was 1.15 µM.

**Q.** What about the TGI [18] of the same molecule?
**A.** Its TGI is 3.08 µM.

**Q.** What about the GI50 [19] of the same molecule?
**A.** The GI50 was 2.08 µM.

**Q.** What about the TGI [19] of the same molecule?
**A.** Its TGI is 6.34 µM.

**Q.** And the GI50 [20]?
**A.** The GI50 was 2.85 µM.

**Q.** And the TGI [20]?
**A.** Its TGI is over 100 µM.

**Q.** And the GI50 [21]?
**A.** The GI50 was 1.88 µM.

**Q.** What about the TGI [21] of the same molecule?
**A.** The TGI was 6.31 µM.

**Q.** And the GI50 [22]?
**A.** Its GI50 is 2.42 µM.

**Q.** What about the TGI [22] of the same molecule?
**A.** Its TGI is 6.27 µM.

**Q.** What about the GI50 [23] of the same molecule?
**A.** The GI50 was 3.33 µM.

**Q.** What about the TGI [23] of the same molecule?
**A.** The TGI was over 100 µM.

**Q.** And the GI50 [24]?
**A.** Its GI50 is 1.78 µM.

**Q.** What about the TGI [24] of the same molecule?
**A.** The TGI was 3.74 µM.

**Q.** And the GI50 [25]?
**A.** Its GI50 is 1.72 µM.

**Q.** What about the TGI [25] of the same molecule?
**A.** Its TGI is 3.23 µM.

**Q.** And the GI50 [26]?
**A.** Its GI50 is 1.54 µM.

**Q.** And the TGI [26]?
**A.** Its TGI is 3.35 µM.

**Q.** What about the GI50 [27] of the same molecule?
**A.** Its GI50 is 2.22 µM.

**Q.** What about the TGI [27] of the same molecule?
**A.** Its TGI is 5.64 µM.

**Q.** And the GI50 [28]?
**A.** Its GI50 is 1.21 µM.

**Q.** What about the TGI [28] of the same molecule?
**A.** Its TGI is 3.35 µM.

**Q.** What about the GI50 [29] of the same molecule?
**A.** The GI50 was 1.8 µM.

**Q.** What about the TGI [29] of the same molecule?
**A.** The TGI was 4.17 µM.

**Q.** And the GI50 [30]?
**A.** Its GI50 is 1.92 µM.

**Q.** What about the TGI [30] of the same molecule?
**A.** The TGI was 4.17 µM.

**Q.** And the GI50 [31]?
**A.** Its GI50 is 1.82 µM.

**Q.** And the TGI [31]?
**A.** Its TGI is 7.49 µM.

**Q.** What about the GI50 [32] of the same molecule?
**A.** The GI50 was 1.71 µM.

**Q.** What about the TGI [32] of the same molecule?
**A.** The TGI was 5.41 µM.

**Q.** And the GI50 [33]?
**A.** Its GI50 is 2.63 µM.

**Q.** And the TGI [33]?
**A.** Its TGI is 9.37 µM.

**Q.** And the GI50 [34]?
**A.** The GI50 was 2.49 µM.

**Q.** What about the TGI [34] of the same molecule?
**A.** Its TGI is 7.88 µM.

**Q.** And the GI50 [35]?
**A.** Its GI50 is 1.34 µM.

**Q.** And the TGI [35]?
**A.** Its TGI is 2.67 µM.

**Q.** What about the GI50 [36] of the same molecule?
**A.** The GI50 was 1.8 µM.

**Q.** And the TGI [36]?
**A.** Its TGI is 3.98 µM.

**Q.** What about the GI50 [37] of the same molecule?
**A.** The GI50 was 2.88 µM.

**Q.** What about the TGI [37] of the same molecule?
**A.** Its TGI is 12.3 µM.

**Q.** And the GI50 [38]?
**A.** The GI50 was 0.553 µM.

**Q.** What about the TGI [38] of the same molecule?
**A.** Its TGI is 4.55 µM.

**Q.** What about the GI50 [39] of the same molecule?
**A.** Its GI50 is 1.58 µM.

**Q.** What about the TGI [39] of the same molecule?
**A.** The TGI was 3.49 µM.

**Q.** What about the GI50 [40] of the same molecule?
**A.** Its GI50 is 1.7 µM.

**Q.** What about the TGI [40] of the same molecule?
**A.** Its TGI is 3.69 µM.

**Q.** What about the GI50 [41] of the same molecule?
**A.** The GI50 was 2.23 µM.

**Q.** And the TGI [41]?
**A.** Its TGI is 4.43 µM.

**Q.** And the GI50 [42]?
**A.** Its GI50 is 1.78 µM.

**Q.** And the TGI [42]?
**A.** Its TGI is 6.22 µM.

**Q.** And the GI50 [43]?
**A.** The GI50 was 1.42 µM.

**Q.** What about the TGI [43] of the same molecule?
**A.** Its TGI is 3.09 µM.

**Q.** What about the GI50 [44] of the same molecule?
**A.** The GI50 was 1.71 µM.

**Q.** And the TGI [44]?
**A.** Its TGI is 3.65 µM.

**Q.** What about the GI50 [45] of the same molecule?
**A.** The GI50 was 1.71 µM.

**Q.** What about the TGI [45] of the same molecule?
**A.** The TGI was 3.64 µM.

**Q.** What about the GI50 [46] of the same molecule?
**A.** Its GI50 is 2.2 µM.

**Q.** What about the TGI [46] of the same molecule?
**A.** Its TGI is over 100 µM.

**Q.** And the GI50 [47]?
**A.** Its GI50 is 1.68 µM.

**Q.** What about the TGI [47] of the same molecule?
**A.** Its TGI is 4.32 µM.

**Q.** What about the GI50 [48] of the same molecule?
**A.** The GI50 was 2.12 µM.

**Q.** What about the TGI [48] of the same molecule?
**A.** Its TGI is 6.03 µM.

**Q.** What about the GI50 [49] of the same molecule?
**A.** Its GI50 is 1.48 µM.

**Q.** What about the TGI [49] of the same molecule?
**A.** Its TGI is 3.96 µM.

**Q.** And the GI50 [50]?
**A.** The GI50 was 1.83 µM.

**Q.** And the TGI [50]?
**A.** The TGI was 4.71 µM.

**Q.** And the GI50 [51]?
**A.** Its GI50 is 1.81 µM.

**Q.** What about the TGI [51] of the same molecule?
**A.** Its TGI is 5.2 µM.

**Q.** What about the GI50 [52] of the same molecule?
**A.** The GI50 was 1.16 µM.

**Q.** What about the TGI [52] of the same molecule?
**A.** The TGI was 3.95 µM.

**Q.** And the GI50 [53]?
**A.** Its GI50 is 2.21 µM.

**Q.** What about the TGI [53] of the same molecule?
**A.** Its TGI is 6.08 µM.

**Q.** And the GI50 [54]?
**A.** The GI50 was 2.23 µM.

**Q.** What about the TGI [54] of the same molecule?
**A.** Its TGI is 7.23 µM.

**Q.** And the GI50 [55]?
**A.** The GI50 was 1.98 µM.

**Q.** What about the TGI [55] of the same molecule?
**A.** The TGI was 5.91 µM.
